Test [1] concerns bovine pulmonary artery endothelial cells (BPAEC). The experiment in a line: Endothelial cell apoptosis (morphology, Hoechst staining, DNA fragmentation). Type of test: cell-based. The method, then:
[Bovine pulmonary artery endothelial cells were incubated with various concentrations of TNF-gamma for 48 hours. The apoptosis was assessed by nuclear staining with Hoechst 33342 fluorescence dye (10 mg/ml).] […] [U937 cells were transfected using lipofectamine (following manufacturer's instruction) with 0.2 mg of reporter plasmid (NF-kappaB-SEAP). The transfected U937 cells were collected and added to the 96-well plate ([…]/well) with various concentrated of TNF-gamma. After Incubation at 37° C. for 72 hr, the NF-kappaB activity was measured with luminometer at absorbance of 450 nm.]
Bovine pulmonary artery endothelia cells (BPAEC) were incubated with various concentrations of TNF-gamma for 48 hours. Apoptosis was assessed morphologically and by nuclear staining with Hoechst 33342 fluorescence dye (10 mg/ml) in triplicate. Live and apoptotic cells were scored in four random fields, about 1,000 cells were counted. The DNA fragmentation was analyzed as described previously.
BPAEC were obtained from the American Type Culture Collection (Rockville, Md., USA). The cells were grown in DMEM supplemented with 10% heat-inactivated FCS in a humidified environment of 5% CO2/[…] at 37° C. as previously described (Yue, T. L., et al., Mol. Pharmacol. 51:951-962 (1997)). Cells at a subconfluent density were used. Before experiments, the medium was changed to DMEM contained 2% FCS. BPAEC from passages 17-20 were used in all studies.
To quantify cells undergoing apoptosis, cell monolayers were fixed and stained with Hoechst […] (Molecular probe, Eugene, Oreg., USA) as described previously (Yue, T. L., et al., Mol. Pharmacol. 51:951-962 (1997)). The morphological features of apoptosis (cell shrinkage, chromatin condensation, blebbing, and fragmentation) were monitored by fluorescence microscopy. Transmission electron microscopy study was done as reported previously (Yue, T. L., et al., Mol. Pharmacol. 51:951-962 (1997)).
DNA ladder: Cells treated with vehicle or TNF-gamma-alpha were lysed in lysis buffer containing 100 mM NaCl, 10 mM Tris-HCl, pH 8.0, 2.5 mM EEDTA, 0.5% SDS, and 100 micrograms/ml […]. The lysates were incubated at 55° C. for 16 h. After incubation, the lysates were gently extracted three times with pheno/chloroform/isoamyl alcohol, precipitated in ethanol, treated with DNAse-free RNAse, re-extracted, and precipitated again as described previously. DNA electrophoresis was carried out in 1.8% agarose gels containing ethidium bromide, and DNA fragmentations were visualized under ultraviolet light.
In situ end-labeling (TUNEL): BPAEC were cultured in two-chamber slides (Nunc) and treated with TNF-gamma-alpha for 8 to 24 h. In situ detection of apoptotic cells was performed by using terminal deoxyribonucleotide transferase-mediated dUTP nick end labeling with an ApopTag in situ apoptosis detection kit (Oncor) following the manufacturer's recommendation.
The cells were plated in two-chamber slides. The cells were cotransfected with 0.5 μg/ml of Pegfp-c-1 (Clontech; Li, Y. and Horwitz, M. S. Biotechnology 23:1026-1028) as a fluorescent marker of transfected cells together with 1 μg/ml of either the empty cloning vector pcDNA1 (control) or the dominant-interfering c-Jun mutant pcDNA1-FlagΔ169 (Xia, Z., et al., Science 270:1326-1331 (1995)) using Calphos Maximizer Transfection Kit (Clontech) according to the manufacturer's recommendation. Following transfection, the cells were allowed to recover in complete medium for 24 h. The cells were treated with TNF-gamma-alpha and the number of apoptotic cells was assessed by nuclear staining after fixation as described in Methods.

The subject of test [2] is bFGF-induced corneal neovascularization. Kind of test: Corneal angiogenic assay. The format is in vivo, rat. The text has this: Basic FGF (“bFGF”) has been tested in this corneal angiogenic assay in various research laboratories for a variety of purposes. It has been shown that bFGF can induce significant angiogenesis in corneas (e.g., in rabbits, rats and mice). Based on the previous studies, bFGF was used in our study of TNF-gamma as an angiogenic factor to induce the growth of blood vessels in rat corneas.
An incision, 1-1.5 mm in length, is made in the center of the cornea with a microsurgery scalpel blade.
Starting at the incision, a micropocket is created between the collagenous layers of the corneal stroma with a Castroviego cyclodialysis spatula. This pocket extends to a point 1-2 mm from the capillary bed at the corneal-scleral limbus.
bFGF, which is incorporated 1:1 into non-inflammatory Hydron polymer (available from Interferon Sciences, New Brunswick, N.J.), is implanted into the pocket.
Five or seven days after corneal implantation, corneal blood perfusion with colloidal carbon is performed. Corneas are then harvested, fixed, flattened, mounted and photographed for morphology.
An image analysis system (IPLab) is used to quantify the corneal angiogenesis. The corneal surface area, which is covered by the new blood vessels, is quantified and used in our current study. After corneal implantation surgery, TNF-gamma, angiostatin or PBS in a volume of 25 microliters was injected into the conjunctival region adjacent to the implantation site. Based on molarities of TNF-gamma and angiostatin, 10 micrograms of TNF-gamma or 5 micrograms of angiostatin were given respectively four times, once a day, during the first four days post-surgery. TNF-gamma and angiostatin were prepared in PBS.
bFGF was used to induce neovascularization of the cornea from preexisting pericorneal limbal vessels in two different versions of the assay. First, corneas were surgically implanted with hydrogel plugs containing bFGF. […] In a separate study using an alternate version of this assay, both bFGF and treatment protein were co-administered on a nitrocellulose filter disk implanted within the rat corneal stroma. […] In both assays, the surface area of the angiogenic response was quantitated from digital images of treated corneas five days following implantation.

The target of test [3] is T1, recombinant, untagged TNF-gamma-beta protein (aa 72-251) (human, UniProt O95150 72-251).
T1 construct: they are put here; also called TL1β; non-tagged TNF-gamma-beta
T1 sequence: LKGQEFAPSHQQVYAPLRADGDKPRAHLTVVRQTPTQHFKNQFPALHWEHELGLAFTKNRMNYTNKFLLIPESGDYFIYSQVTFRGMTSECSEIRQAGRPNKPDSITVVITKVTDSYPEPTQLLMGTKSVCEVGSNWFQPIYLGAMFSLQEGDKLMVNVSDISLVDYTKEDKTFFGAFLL
Kind of test: BIAcore 3000, DR3-Fc immobilised on CM5 chip, TNF-gamma-beta in flow, 1:1 model, three batches. The method, then:
TNFR-Fc were covalently immobilized to the BIAcore sensor chip (CM5 chip) via amine groups using N-ethyl-N′-(dimethylaminopropyl) carbodiimide/N-hydroxysuccinimide chemistry. […] The amount of bound protein was determined during washing of the flow cell with HBS buffer (10 mM HEPES, pH 7.4, 150 mM NaCl, 3.4 mM EDTA, 0.005% Surfactant P20). The flow cell surface was regenerated by displacing bound protein by washing with 20 microliters of 10 mM glycine-HCl, pH 2.3. For kinetic analysis, the on and off rates were determined using the kinetic evaluation program in BIAevaluation 3 software using a 1:1 binding model and the global analysis method.

In another test the target is T2, TNF-gamma-beta (Homo sapiens, UniProt O95150).
T2 construct: expressed in transfected cells
T2 sequence (O95150 1-251): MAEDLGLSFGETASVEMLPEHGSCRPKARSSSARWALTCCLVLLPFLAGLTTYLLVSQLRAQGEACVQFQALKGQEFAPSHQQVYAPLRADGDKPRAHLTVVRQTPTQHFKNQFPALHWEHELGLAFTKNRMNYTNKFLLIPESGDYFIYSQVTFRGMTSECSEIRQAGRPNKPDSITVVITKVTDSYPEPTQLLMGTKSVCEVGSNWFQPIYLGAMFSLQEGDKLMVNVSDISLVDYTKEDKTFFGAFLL
The experiment in a line: FACS binding of receptor-Fc proteins to cells expressing full length TNF-gamma-beta. The method, then: These cells were used to screen the Fc-fusion form of the extracellular domain of TNFR family members, including TNFR1, Fas, HveA, DR3, DR4, DR5, DR6, DcR1, DcR2, TR6, OPG, RANK, AITR, TAC1, CD40, and OX40. […] TR6 has been previously described as a decoy receptor (Pitti et al., Nature 396:699-703 (1998); Yu et al., J. Biol. Chem. 274:13733-6 (1999)) capable of competing with Fas and HveA for binding of FasL and LIGHT, respectively.
Cells resistant to 0.5 mg/ml Genticin (Invitrogen) were selected and expanded. Expression of TNF-gamma-beta mRNA was confirmed by quantitative RT-PCR analysis and surface expression of TNF-gamma-beta protein confirmed by FACS analyses using TNF-gamma-beta monoclonal antibodies.
One million cells, in 0.1 ml of FACS buffer (PBS, 0.1% BSA, 0.1% NaN3), were incubated with 0.1-1 microgram of protein or antibody at RT for 15 min. The cells were washed with 3 ml of FACS buffer, reacted with biotinylated primary antibody, and stained with PE-conjugated secondary antibody at RT for 15 min. Cells were then washed again, resuspended in 0.5 microgram/ml of propidium iodide, and live cells were gated and analyzed on a FACScan using the CellQuest software (BD Biosciences).

Consider `C[S+]([O-])c1ccc(-c2nc(-c3ccncc3)c(-c3ccc(F)cc3)[nH]2)cc1` (stereo not drawn) [SB203580, reference compound], for which the “reduction of TNF-gamma-alpha-induced BPAEC apoptosis” value in test [1] (3 μM) is reported as 33%; in test [1] (10 μM), 51%.

As for angiostatin, the “angiogenic process in bFGF-implanted corneas” value in test [2] (bFGF (300 ng) implant, conjunctival injection once a day for four days, 10 micrograms TNF-gamma or 5 micrograms angiostatin, seven days after surgery, vs PBS) was “significantly slowed down the angiogenic process”. Moreover, the “maximal decrease in rat corneal neovascularization induced by bFGF” value in test [2] (comparison of TNF-gamma-beta and angiostatin) was “similar”. The “vessel growth in PBS-implanted corneas” value in test [2] (multiple conjunctival injections) is on record as “no obvious vessel growth”.

For ZVAD-fmk [reference compound], the “effect of caspase inhibitor on TNF-gamma-alpha-induced BPAEC apoptosis” value in test [1] (added 1 h prior to TNF-gamma-alpha, Ac-YYAD-CHO up to 100 μM) is recorded as “attenuated”.

B1: DR3-Fc (extracellular domain of human DR3, aa 1-199, fused to the Fc domain of human IgG1) (Fc fusion, UniProt Q93038 25-199, looked up)
chain: QGGTRSPRCDCAGDFHKKIGLFCCRGCPAGHYLKAPCTEPCGNSTCLVCPQDTFLAWENHHNSECARCQACDEQASQVALENCSAVADTRCGCKPGWFVECQVSQCVSSSPFYCQPCLDCGALHRHTRLLCSRRDTDCGTCLPGFYEHGDGCVSCPTSTLGSCPERCAAVCGWRQ
notes: range 1-199; not shown: Fc domain of human IgG1, fused in-frame to the C-terminus of the receptor part
For B1, in test [3], the dissociation constant Kd is 6.45 nM and the kon amounted to 639000 M⁻¹ s⁻¹.

B2: sTNFR1: Mouse soluble TNF receptor 1 from R&D Systems (protein, UniProt P25118 30-212, looked up)
extracellular domain: LVPSLGDREKRDSLCPQGKYVHSKNNSICCTKCHKGTYLVSDCPSPGRDTVCRECEKGTFTASQNYLRQCLSCKTCRKEMSQVEISPCQADKDTVCGCKENQFQRYLSETHFQCVDCSPCFNGTVTIPCKETQNTVCNCHAGFFLRESECVPCSHCKKNEECMKLCLPPPLANVTNPQDSGTA
modifications: extracellular domain
notes: Mouse soluble TNF receptor 1 from R&D Systems
Regarding B2, the “effect on TNF-gamma-alpha-induced apoptosis” value in test [1] (BPAEC) is “Neither sTNFR1 nor sTNFR2 showed effect”. For the same molecule, the “effect on TNFa-induced apoptosis” value in test [1] (BPAEC, same condition) was “reduced by sTNFR1 significantly”.

B3: TR6: non-tagged TNFR-6 alpha (DcR3) decoy receptor protein (protein)
chain: VAETPTYPWRDAETGERLVCAQCPPGTFVQRPCRRDSPTTCGPCPPRHYTQFWNYLERCRYCNVLCGEREEEARACHATHNRACRCRTGFFAHAGFCLEHASCPPGAGVIAPGTPSQNTQCQPCPPGTFSASSSSSEQCQPHRNCTALGLALNVPGSSSHDTLCTSCTGFPLSTRVPGAEECERAVIDFVAFQDISIKRLQRLLQALEAPEGWGPTPRAGRAALQLKLRRRLTELLGAQDGALLVRLLQALRVARMPGLERSVRERFLPVH
B3: the “competition with DR3-Fc for binding to TNF-gamma-beta expressing cells” value in the test with TNF-gamma-beta (2:1 molar ratio of non-tagged TR6 and DR3-Fc) is given as “no binding of DR3-Fc was detected”.

B4: HveA-Fc: extracellular domain of HveA (aa 1-192) fused to Fc of human IgG1 (protein)
chain: LPSCKEDEYPVGSECCPKCSPGYRVKEACGELTGTVCEPCPPGTYIAHLNGLSKCLQCQMCDPAMGLRASRNCSRTENAVCGCSPGHFCIVQDGDHCAACRAYATSSPGQRVQKGGTESQDTLCQNCPPGTFSPNGTLEECQHQTKCSWLVTKA
modifications: left off: a dimerising Fc or GST
notes: extracellular domain of HveA (aa 1-192) fused to Fc of human IgG1
On to B4, for which the “binding to cells expressing TNF-gamma-beta (FACS)” value with TNF-gamma-beta is given as “did not bind”.

Values taken from US20030129189A1, “Tumor necrosis factor-gamma” (priority 1994, published 2003).
